Measurements published in PubChem BioAssay (NCI).
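96-well plates; 48 h exposure; 5 concentrations. Endpoints by linear interpolation between flanking doses. Not reached: highest tested concentration assigned. Here, GI50 denotes the concentration required for 50% inhibition of growth. Definition used: TGI = concentration required for complete inhibition of growth.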

Experiments:
Assay in all cases: inhibition of tumour cell growth, NCI panel, 48 h
HCT-116 colon = test system: HCT-116 colon
IGROV1 ovarian = test system: IGROV1 ovarian
K-562 leukemia = test system: K-562 leukemia
HCT-15 colon = test system: HCT-15 colon
SF-268 CNS = test system: SF-268 CNS
PC-3 prostate = test system: PC-3 prostate
CCRF-CEM leukemia = test system: CCRF-CEM leukemia
SF-539 CNS = test system: SF-539 CNS
MDA-MB-435 = test system: MDA-MB-435
HT29 colon = test system: HT29 colon
SK-OV-3 ovarian = test system: SK-OV-3 ovarian
NCI/ADR-RES ovarian = test system: NCI/ADR-RES ovarian
EKVX NSCLC = test system: EKVX NSCLC
U251 CNS = test system: U251 CNS
SW-620 colon = test system: SW-620 colon
SK-MEL-5 melanoma = test system: SK-MEL-5 melanoma
CAKI-1 renal = test system: CAKI-1 renal
BT-549 breast = test system: BT-549 breast
LOX IMVI melanoma = test system: LOX IMVI melanoma
UACC-257 melanoma = test system: UACC-257 melanoma
SNB-75 CNS = test system: SNB-75 CNS
HCC-2998 colon = test system: HCC-2998 colon
KM12 colon = test system: KM12 colon
786-0 renal = test system: 786-0 renal
RXF 393 renal = test system: RXF 393 renal
HOP-62 NSCLC = test system: HOP-62 NSCLC
HOP-92 NSCLC = test system: HOP-92 NSCLC
OVCAR-4 ovarian = test system: OVCAR-4 ovarian
SK-MEL-28 melanoma = test system: SK-MEL-28 melanoma
OVCAR-8 ovarian = test system: OVCAR-8 ovarian
T-47D breast = test system: T-47D breast
MDA-MB-231 breast = test system: MDA-MB-231 breast
COLO 205 colon = test system: COLO 205 colon
M14 melanoma = test system: M14 melanoma
SF-295 CNS = test system: SF-295 CNS
A498 renal = test system: A498 renal
ACHN renal = test system: ACHN renal
NCI-H460 lung = test system: NCI-H460 lung
SNB-19 CNS = test system: SNB-19 CNS
RPMI-8226 leukemia = test system: RPMI-8226 leukemia
SN12C renal = test system: SN12C renal
MCF7 breast = test system: MCF7 breast
HL-60(TB) leukemia = test system: HL-60(TB) leukemia
OVCAR-3 ovarian = test system: OVCAR-3 ovarian
TK-10 renal = test system: TK-10 renal
DU-145 prostate = test system: DU-145 prostate
NCI-H226 lung = test system: NCI-H226 lung
MALME-3M melanoma = test system: MALME-3M melanoma
HS 578T breast = test system: HS 578T breast
OVCAR-5 ovarian = test system: OVCAR-5 ovarian
UO-31 renal = test system: UO-31 renal
MOLT-4 leukemia = test system: MOLT-4 leukemia
A549 NSCLC = test system: A549 NSCLC
SR leukemia = test system: SR leukemia
UACC-62 melanoma = test system: UACC-62 melanoma
SK-MEL-2 melanoma = test system: SK-MEL-2 melanoma
NCI-H522 lung = test system: NCI-H522 lung

Compound `CS(=O)(=O)c1nccc(-c2c(-c3ccc(F)c(OCc4ccc(F)cc4)c3)nc3sccn23)n1` has a GI50 (HCT-116 colon) of 14.4 µM, a TGI (HCT-116 colon) of 27.5 µM and a GI50 (IGROV1 ovarian) of 15.5 µM. The TGI (IGROV1 ovarian) was 31.8 µM, the GI50 (K-562 leukemia) was 21 µM and the TGI (K-562 leukemia) was 72.8 µM. For the same compound, the GI50 (HCT-15 colon) was 13.8 µM, the TGI (HCT-15 colon) was 31.4 µM and the GI50 (SF-268 CNS) was 15.9 µM. The TGI (SF-268 CNS) was 32.8 µM, the GI50 (PC-3 prostate) was 17.2 µM and the TGI (PC-3 prostate) was 34.9 µM. It also gave a GI50 (CCRF-CEM leukemia) of 3.38 µM, a TGI (CCRF-CEM leukemia) of 13.1 µM and a GI50 (SF-539 CNS) of 17.8 µM. For the same compound, the TGI (SF-539 CNS) was 36.7 µM, the GI50 (MDA-MB-435) was 16.5 µM and the TGI (MDA-MB-435) was 31 µM. It also gave a GI50 (HT29 colon) of 21.6 µM, a TGI (HT29 colon) of 61.6 µM and a GI50 (SK-OV-3 ovarian) of 93.6 µM. The TGI (SK-OV-3 ovarian) was > 100 µM, the GI50 (NCI/ADR-RES ovarian) was 18 µM and the TGI (NCI/ADR-RES ovarian) was 38.7 µM. It also gave a GI50 (EKVX NSCLC) of 15.6 µM, a TGI (EKVX NSCLC) of 29.1 µM and a GI50 (U251 CNS) of 17.8 µM. The TGI (U251 CNS) was 37.9 µM, the GI50 (SW-620 colon) was 16.1 µM and the TGI (SW-620 colon) was 31.8 µM. The GI50 (SK-MEL-5 melanoma) was 17.4 µM, the TGI (SK-MEL-5 melanoma) was 33.1 µM and the GI50 (CAKI-1 renal) was 14.8 µM. For the same compound, the TGI (CAKI-1 renal) was 28 µM, the GI50 (BT-549 breast) was 21.2 µM and the TGI (BT-549 breast) was 63.6 µM. The GI50 (LOX IMVI melanoma) was 10.2 µM, the TGI (LOX IMVI melanoma) was 24.5 µM and the GI50 (UACC-257 melanoma) was 14.5 µM. The TGI (UACC-257 melanoma) was 28.4 µM, the GI50 (SNB-75 CNS) was 16.4 µM and the TGI (SNB-75 CNS) was > 100 µM. The GI50 (HCC-2998 colon) was 14.2 µM, the TGI (HCC-2998 colon) was 27.9 µM and the GI50 (KM12 colon) was 17.6 µM. It also gave a TGI (KM12 colon) of 33.8 µM, a GI50 (786-0 renal) of 20.9 µM and a TGI (786-0 renal) of 53.3 µM. For the same compound, the GI50 (RXF 393 renal) was 14.3 µM, the TGI (RXF 393 renal) was 29.2 µM and the GI50 (HOP-62 NSCLC) was 16.2 µM. For the same compound, the TGI (HOP-62 NSCLC) was 30.9 µM, the GI50 (HOP-92 NSCLC) was 5.43 µM and the TGI (HOP-92 NSCLC) was 21.5 µM. For the same compound, the GI50 (OVCAR-4 ovarian) was 17.8 µM, the TGI (OVCAR-4 ovarian) was 44.6 µM and the GI50 (SK-MEL-28 melanoma) was 16.1 µM. It also gave a TGI (SK-MEL-28 melanoma) of 29.8 µM, a GI50 (OVCAR-8 ovarian) of 15 µM and a TGI (OVCAR-8 ovarian) of 28.3 µM. For the same compound, the GI50 (T-47D breast) was 11.1 µM, the TGI (T-47D breast) was 26.2 µM and the GI50 (MDA-MB-231 breast) was 18.1 µM. The TGI (MDA-MB-231 breast) was 39.4 µM, the GI50 (COLO 205 colon) was 17.6 µM and the TGI (COLO 205 colon) was 34 µM. It also gave a GI50 (M14 melanoma) of 18.5 µM, a TGI (M14 melanoma) of 36.7 µM and a GI50 (SF-295 CNS) of 23 µM. The TGI (SF-295 CNS) was 52 µM, the GI50 (A498 renal) was 13 µM and the TGI (A498 renal) was 26 µM. The GI50 (ACHN renal) was 16.6 µM, the TGI (ACHN renal) was 30.9 µM and the GI50 (NCI-H460 lung) was 13.5 µM. For the same compound, the TGI (NCI-H460 lung) was 27.4 µM, the GI50 (SNB-19 CNS) was 16 µM and the TGI (SNB-19 CNS) was 30 µM. It also gave a GI50 (RPMI-8226 leukemia) of 20 µM, a TGI (RPMI-8226 leukemia) of 54.7 µM and a GI50 (SN12C renal) of 23.7 µM. The TGI (SN12C renal) was > 100 µM, the GI50 (MCF7 breast) was 5.69 µM and the TGI (MCF7 breast) was 22.2 µM. The GI50 (HL-60(TB) leukemia) was 3.89 µM, the TGI (HL-60(TB) leukemia) was 15.3 µM and the GI50 (OVCAR-3 ovarian) was 13.1 µM. For the same compound, the TGI (OVCAR-3 ovarian) was 25.8 µM, the GI50 (TK-10 renal) was 22.1 µM and the TGI (TK-10 renal) was 66.3 µM. The GI50 (DU-145 prostate) was 3.33 µM, the TGI (DU-145 prostate) was 11.1 µM and the GI50 (NCI-H226 lung) was 28.3 µM. The TGI (NCI-H226 lung) was > 100 µM, the GI50 (MALME-3M melanoma) was 24.5 µM and the TGI (MALME-3M melanoma) was 71 µM. It also gave a GI50 (HS 578T breast) of 21.2 µM, a TGI (HS 578T breast) of 72.2 µM and a GI50 (OVCAR-5 ovarian) of 67.6 µM. For the same compound, the TGI (OVCAR-5 ovarian) was > 100 µM, the GI50 (UO-31 renal) was 15.1 µM and the TGI (UO-31 renal) was 36.3 µM. The GI50 (MOLT-4 leukemia) was 18.2 µM, the TGI (MOLT-4 leukemia) was 44.4 µM and the GI50 (A549 NSCLC) was 17.7 µM. It also gave a TGI (A549 NSCLC) of 34.6 µM, a GI50 (SR leukemia) of 13.1 µM and a TGI (SR leukemia) of 60.8 µM. For the same compound, the GI50 (UACC-62 melanoma) was 16.3 µM, the TGI (UACC-62 melanoma) was 34.2 µM and the GI50 (SK-MEL-2 melanoma) was 15.2 µM. The TGI (SK-MEL-2 melanoma) was 29.6 µM, the GI50 (NCI-H522 lung) was 13.4 µM and the TGI (NCI-H522 lung) was 30.3 µM.
